Test results as given in US20040259861A1, “Medicament inhibiting sodium/calcium exchange system” (priority 2001, published 2004).

Target: T1, sodium/calcium exchanger (Rattus norvegicus, UniProt Q01728)
T1 construct: The heart of the rat was excised and perfused with Krebs buffer solution; from tissue; host or cells: isolated Langendorff-perfused rat heart
Assay: Langendorff-perfused rat heart, monensin treatment plus ischemia/reperfusion: ventricular total calcium content and recovery in contractile tension
Conditions: for Calcium Content: isolated rat heart, monensin 5 μM 10 min, ischemia 15 min, reperfusion 30 min; for effect on decreased recovery in contractile tension (in words) / effect on increased ventricular calcium content (in words): monensin treatment and ischemia/reperfusion, rat heart
Protocol: The heart of the rat was excised and perfused with Krebs buffer solution (in mM: NaCl 119, KCl 4.6, MgSO4.7H2O 1.2, CaCl2.2H2O 1.3, NaHCO3 25, KH2PO4 1.2, glucose 11; pH 7.4, 37° C.) according to Langendorff method. A thread attached to the apex of the heart was connected to a tension transducer to determine contractile tension. The heart was perfused with a perfusion solution containing monensin (5 μ M; sodium ionophore) for 10 min and then ischemia was induced by a cessation of coronary flow (for 15 min). After reperfusion for 30 min, the heart was liquefied in nitric acid, and ventricular total calcium content was determined by atomic absorption analysis. Contractile tension was measured during the experiment, and recovery in contractile tension at 30 min of reperfusion related to its pre-value was used as an index of cardiac contraction.

Calcium Content (10^−3 M) [µmol/g]	Calcium Content (10^−4 M) [µmol/g]	effect on decreased recovery in contractile tension (in words)	effect on increased ventricular calcium content (in words)	Calcium Content (10^−5 M) [µmol/g]	Structure (SMILES)	Calcium Content (10^−6 M) [µmol/g]	Calcium Content (10^−7 M) [µmol/g]	effect on increased ventricular calcium content (in words) (listed as The medicament of the present invention, monohydrate)	effect on increased ventricular calcium content (in words) (listed as the medicament of the present invention, monohydrate)
4.26 ± 0.40	5.30 ± 0.25	failed to exhibit these effects	failed to exhibit these effects	–	N=C(N)NC(=O)c1nc(Cl)c(N)nc1N [Amiloride]	–	–	–	–
–	–	failed to exhibit these effects	failed to exhibit these effects	5.89 ± 0.22	COc1ccc([C@@H]2Sc3ccccc3N(CCN(C)C)C(=O)[C@@H]2OC(C)=O)cc1 [Diltiazem]	5.75 ± 0.16	–	–	–

Structure (SMILES)	Calcium Content (10^−3 M) [µmol/g]	Calcium Content (10^−4 M) [µmol/g]	effect on decreased recovery in contractile tension (in words)	effect on increased ventricular calcium content (in words)	Calcium Content (10^−5 M) [µmol/g]	Calcium Content (10^−6 M) [µmol/g]	Calcium Content (10^−7 M) [µmol/g]	effect on increased ventricular calcium content (in words) (listed as The medicament of the present invention, monohydrate)	effect on increased ventricular calcium content (in words) (listed as the medicament of the present invention, monohydrate)
Cc1ccc(N2CCNCC2)c(S(=O)(=O)O)c1.O [Compound of the Present Invention, 5-methyl-2-(1-piperazinyl)benzenesulfonic acid monohydrate]	–	–	improved	–	–	2.72 ± 0.18	3.72 ± 0.16	improved	effective in reducing increase in ventricular calcium content
